Laboratory results taken from patent US20240409536A1, “COMPOUNDS AND METHODS FOR MODULATING SPLICING” (REMIX THERAPEUTICS INC., priority 2021, published 2024).
pIC50: −log10 of the molar value.

Key:
HiBiT-tagged HTT protein = assay: HiBiT protein abundance assay, HTT (K562 HiBiT knock-in cells); format: cell-based, human; conditions: 24 hours
In short: (§1)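 K562 cells with endogenous HiBiT knock-in tag, 10-point 3-fold dilutions (top 10 μM final, ≤0.25% DMSO), 24 h at 37 °C. Lytic Nano-Glo HiBiT luminescence, normalized to DMSO and unmodified K562 baselines; IC50 is concentration giving 50% protein abundance from four-parameter fit.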

MYB mRNA = assay: Gene panel canonical junction qPCR assay, MYB CJ mRNA decrease; format: cell-based, human; conditions: Homo sapiens, canonical junction qPCR, read-out: MYB IC50 (decrease in CJ mRNA levels)
In short: (§2)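 A673 or K562 cells treated with compound; canonical exon-exon junction mRNA quantified by cDNA synthesis and RT-qPCR with junction-spanning primer/probe, normalized to GAPDH, GUSB or PPIA and DMSO (2^(−ΔΔCt)). Percent response from set ΔCt assay windows fitted to 4-parameter logistic; IC50 for CJ decrease.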

Target C mRNA = assay: Gene panel canonical junction qPCR assay, Target C CJ mRNA decrease; format: cell-based; conditions: Homo sapiens, canonical junction qPCR, read-out: Target C IC50 (decrease in CJ mRNA levels)
In short: as §2

K562 cells = assay: Cell Titer Glo 2.0 cell viability assay in K562 cells; conditions: 72 hours
HiBiT-tagged MYB protein = assay: HiBiT protein abundance assay, MYB (K562 HiBiT knock-in cells); format: cell-based, human; conditions: 24 hours
In short: as §1

SMN2 mRNA = assay: Gene panel canonical junction qPCR assay, SMN2 CJ mRNA decrease; format: cell-based, human; conditions: Homo sapiens, canonical junction qPCR, read-out: SMN2 IC50 (decrease in CJ mRNA levels)
In short: as §2

HTT mRNA = assay: Gene panel canonical junction qPCR assay, HTT CJ mRNA decrease; format: cell-based, human; conditions: Homo sapiens, canonical junction qPCR, read-out: HTT IC50 (decrease in CJ mRNA levels)
In short: as §2

Row | SMILES | pIC50 (HiBiT-tagged HTT protein) | pIC50 (MYB mRNA) | pIC50 (Target C mRNA) | Viability (K562 cells) | pIC50 (HiBiT-tagged MYB protein) | pIC50 (SMN2 mRNA) | pIC50 (HTT mRNA)
1 | Cc1ccc2c(N3C[C@@H](C)N[C@@H](C)C3)ccc(C(=O)Nc3cc(F)c4nc(C)cn4c3)c2n1 [Compound 214, 5-[(3R,5S)-3,5-dimethylpiperazin-1-yl]-N-{8-fluoro-2-methylimidazo[1,2-a]pyridin-6-yl}-2-methylquinoline-8-carboxamide] | 5.00 to 6.00 | > 7.00 | 5.00 to 6.00 | B (B represents 100-1000 nM) | > 7.00 | > 7.00 | 6.00 to 7.00
2 | Cc1ccc2c(N3CCC(N(C)C)CC3)ccc(C(=O)Nc3cc(F)c4nc(C)cn4c3)c2n1 [Compound 215, 5-[4-(dimethylamino)piperidin-1-yl]-N-{8-fluoro-2-methylimidazo[1,2-a]pyridin-6-yl}-2-methylquinoline-8-carboxamide] | 5.00 to 6.00 | 6.00 to 7.00 | 5.00 to 6.00 | B (B represents 100-1000 nM) | > 7.00 | > 7.00 | 6.00 to 7.00
3 | Cc1cnc2c(N3C[C@@H](C)N[C@@H](C)C3)ccc(C(=O)Nc3cc(F)c4nc(C)cn4c3)c2n1 [Compound 216, 8-((3R,5S)-3,5-dimethylpiperazin-1-yl)-N-{8-fluoro-2-methylimidazo[1,2-a]pyridin-6-yl}-3-methylquinoxaline-5-carboxamide] | 5.00 to 6.00 | 6.00 to 7.00 | < 5.00 | C (C represents 1000-9999 nM) | > 7.00 | > 7.00 | 5.00 to 6.00
4 | Cc1cn2cc(NC(=O)c3ccc(N4CCNC5(CC5)C4)c4nccnc34)cc(F)c2n1 [Compound 218, 8-{4,7-diazaspiro[2.5]octan-7-yl}-N-{8-fluoro-2-methylimidazo[1,2-a]pyridin-6-yl}quinoxaline-5-carboxamide] | 5.00 to 6.00 | > 7.00 | < 5.00 | B (B represents 100-1000 nM) | > 7.00 | > 7.00 | < 5.00
5 | Cc1cn2cc(NC(=O)c3ccc(N4CC(C)(C)NC(C)(C)C4)c4nccnc34)cc(F)c2n1 [Compound 219, N-{8-fluoro-2-methylimidazo[1,2-a]pyridin-6-yl}-8-(3,3,5,5-tetramethylpiperazin-1-yl)quinoxaline-5-carboxamide] | 5.00 to 6.00 | > 7.00 | 5.00 to 6.00 | A (A represents <100 nM) | > 7.00 | > 7.00 | 5.00 to 6.00
6 | Cc1cn2cc(NC(=O)c3ccc(N4CCNC(C)(C)C4)c4nccnc34)cc(F)c2n1 [Compound 220, 8-(3,3-dimethylpiperazin-1-yl)-N-{8-fluoro-2-methylimidazo[1,2-a]pyridin-6-yl}quinoxaline-5-carboxamide] | 5.00 to 6.00 | > 7.00 | 5.00 to 6.00 | A (A represents <100 nM) | > 7.00 | > 7.00 | 5.00 to 6.00
7 | CCNC1CCN(c2ccc(C(=O)Nc3cc(F)c4nc(C)sc4c3)c3nnccc23)CC1 [Compound 221, 5-[4-(ethylamino)piperidin-1-yl]-N-(4-fluoro-2-methyl-1,3-benzothiazol-6-yl)cinnoline-8-carboxamide] | 5.00 to 6.00 | 5.00 to 6.00 | 5.00 to 6.00 | B (B represents 100-1000 nM) | 6.00 to 7.00 | > 7.00 | 5.00 to 6.00
8 | COc1cnc2c(C(=O)Nc3cc(F)c4nc(C)cn4c3)ccc(N3C[C@@H](C)N[C@@H](C)C3)c2n1 [Compound 223] | 6.00 to 7.00 | > 7.00 | 6.00 to 7.00 | B (B represents 100-1000 nM) | > 7.00 | > 7.00 | 6.00 to 7.00
9 | COc1cnc2c(C(=O)Nc3cc(F)c4nc(C)cn4c3)ccc(N3CCNCC3)c2n1 [Compound 225, N-{8-fluoro-2-methylimidazo[1,2-a]pyridin-6-yl}-2-methoxy-8-(piperazin-1-yl)quinoxaline-5-carboxamide] | < 5.00 | > 7.00 | < 5.00 | C (C represents 1000-9999 nM) | > 7.00 | > 7.00 | < 5.00
10 | Cc1cn2cc(NC(=O)c3ccc(N4CCN(CCF)C5(CC5)C4)c4nccnc34)cc(F)c2n1 [Compound 370] | < 5.00 | 5.00 to 6.00 | < 5.00 | D (D represents greater than 10 μM in K562 cells) | 5.00 to 6.00 | 6.00 to 7.00 | < 5.00
11 | Cc1cn2cc(NC(=O)c3ccc(C4CCNCC4)c4nccnc34)cc(F)c2n1 [Compound 371] | 6.00 to 7.00 | 6.00 to 7.00 | 5.00 to 6.00 | A (A represents <100 nM) | 6.00 to 7.00 | > 7.00 | 6.00 to 7.00
12 | Cc1cn2cc(NC(=O)c3ccc(N4CCNC5(COC5)C4)c4nccnc34)cc(F)c2n1 [Compound 372] | < 5.00 | 5.00 to 6.00 | < 5.00 | C (C represents 1000-9999 nM) | 5.00 to 6.00 | 6.00 to 7.00 | < 5.00
13 | Cc1cn2cc(NC(=O)c3ccc(N4CCNC5(CCOC5)C4)c4nccnc34)cc(F)c2n1 (stereo not drawn) [Compound 373] | 5.00 to 6.00 | 6.00 to 7.00 | < 5.00 | B (B represents 100-1000 nM) | 6.00 to 7.00 | > 7.00 | < 5.00
14 | Cc1cn2cc(NC(=O)c3ccc(N4CCNC5(CCOCC5)C4)c4nccnc34)cc(F)c2n1 [Compound 374] | 5.00 to 6.00 | 6.00 to 7.00 | 5.00 to 6.00 | B (B represents 100-1000 nM) | 6.00 to 7.00 | > 7.00 | 5.00 to 6.00
15 | Cc1cn2cc(NC(=O)c3ccc(C4CCNC5(CC5)C4)c4nccnc34)cc(F)c2n1 (stereo not drawn) [Compound 375] | 5.00 to 6.00 | 6.00 to 7.00 | 5.00 to 6.00 | B (B represents 100-1000 nM) | 6.00 to 7.00 | > 7.00 | 5.00 to 6.00
16 | Cc1cn2cc(NC(=O)c3ccc(N4C[C@@H](C)NC5(CC5)C4)c4nccnc34)cc(F)c2n1 [Compound 376] | 5.00 to 6.00 | 6.00 to 7.00 | < 5.00 | B (B represents 100-1000 nM) | 6.00 to 7.00 | > 7.00 | < 5.00
17 | Cc1cn2cc(NC(=O)c3ccc(N4C[C@H](C)NC5(CC5)C4)c4nccnc34)cc(F)c2n1 [Compound 377] | 5.00 to 6.00 | > 7.00 | < 5.00 | B (B represents 100-1000 nM) | 6.00 to 7.00 | > 7.00 | 5.00 to 6.00
18 | COc1ncc2c(N3C[C@@H](C)N[C@@H](C)C3)ccc(C(=O)Nc3cn4cc(C)nc4c(OC)n3)c2n1 [Compound 378] | 6.00 to 7.00 | > 7.00 | 6.00 to 7.00 | A (A represents <100 nM) | > 7.00 | > 7.00 | 6.00 to 7.00
